Source: patent US20230393140A1, “BINDING ASSAYS INVOLVING A PLURALITY OF SYNTHETIC COMPOUNDS, TARGETS, AND COUNTER TARGETS” (SRI International, priority 2020, published 2023)
Where two headings read alike, the source gives them in different places. Numbered stars: 1 amine (or outer) side, 2 acyl side, 3 side chain; on linkers, the order of the positions; unused ones are H or OH. Square brackets hold non-standard residues; d marks the D form. Peptide text beside a SMILES is read from it. * marks the point of attachment. 5FAM = O=C1OC2(c3ccc(O)cc3Oc3cc(O)ccc32)c2ccc(C(=O)*)cc21; NHCH2C6H4(4-CH2CONH2) = NC(=O)Cc1ccc(CN*)cc1; X1 = O=C(Cc1ccc(CN[*:1])cc1)[*:2]

Tests used:
cRaf/K-Ras (G12V) PPI = biological target: T1, cRaf/K-Ras (G12V) PPI (Homo sapiens, UniProt P01116, G12V); assay: K-Ras-cRaf HTRF-based PPI profiling; type: biochemical; conditions: for blank corrected HTRF: raw data; for % Binding: relative to DMSO controls;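 on blank corrected HTRF: background is the signal of wells with all components except cRaf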
T1 construct: b-Kras G12V (GppNHp) (aa 2-169); biotin (b-
Method: In some experimental embodiments, a buffer was added to the assay wells which included […] HEPES pH 7.4, 150 mM NaCl, 5 mM MgCl2, 1 mM DTT, 0.005% NP40, and 1% DMSO. 5 uL of 3×K-Ras protein was then added to the assay wells, followed by the synthetic compounds which were added using acoustic technology (ECHO, Labcyte) followed by thirty minutes incubation at room temperature. Afterwards, 5 uL of 3×cRaf protein was added to the assay wells and 5 uL of detection mix was then added to the assay wells after 30 minutes. The detection mix included Mab anti-GST-Tb cryptate (Cisbio 61GSTTLB) and streptavidin-XL665 (Ex/Em=(337/665; 620) in PHERAstar (BMG Labtech)). HTRF signal was measured […] later.
The data includes raw data (signal-background without cRaf protein but with all other component), % binding (relative to DMSO controls), and curve fits. Curve fits were performed when the activities at the highest concentration of the synthetic compounds were less than 65%. Tables 18A-18B below includes the raw data (e.g., blank corrected HTRF) and Tables 19A-19B includes the % binding.

K-Ras = biological target: T2, K-Ras (Homo sapiens, UniProt P01116, G12V); assay: MST binding affinity of resynthesized NNP hits to K-Ras; conditions: read-out: KD (nM) [95% conf. int]; MST; NNP1 library hit; target K-Ras; one-site binding model
T2 construct: purchased Cytoskeleton Inc. CS-RS04
Method: Loading was performed according to the following protocol: The 200 μM stock solution of the target protein was diluted to 10 μM in 20 mM HEPES pH 8.0, 150 mM NaCl, 10 mM MgCl2, 1 mM TCEP, 0.05% Tween-20 (total volume 110 μL). 10 μL were set aside for later labeling quality control. EDTA pH 8.0 (stock concentration 10 mM) was added to the protein solution to a final concentration of 80 μM. GTP (stock concentration 50 mM) was added to the protein solution to a final concentration of 750 μM. The solution was incubated at 30° C. for 2 hours (PCR tube) and then placed on ice for 2 minutes. MgCl2 was added to the protein solution to a final concentration of 100 mM. The resulting protein solution was buffer exchanged into the buffer required in the labeling kit for labeling. […] All the other target molecules (TNFα, IL-6, IL-6R and ASGPR) were used as received without any additional treatment.
Hit binding affinity to various targets were determined using Microscale Thermophoresis (MST). MST experiments were performed on a Monolith NT.115pico (NanoTemper Technologies GmbH, Munich, Germany). Measurements were performed at room temperature, in triplicate with incubation periods of 15, 30 and 45 minutes. […] Targets were labeled using Nanotemper Monolith 2nd Generation Protein Labeling Kits. RED-MALEIMIDE (Maleimide-647-dye) labeling kit was used for K-Ras and RED-NHS (NHS-647-dye) labeling kit was used for IL-6, IL-6R, TNFα and ASGPR. The buffer for the ASGPR contained 20 mM HEPES pH 7.4, 150 mM NaCl, 10 mM MgCl2, 2 mM CaCl2, 0.05% Pluronic F-127, and 1 mM DTT; for IL-6 contained 20 mM HEPES pH 7.4, 150 mM KCl, 10 mM MgCl2, and 0.1% Pluronic F-127; for the soluble IL-6 receptor 20 mM HEPES pH 7.4, 150 mM NaCl, 10 mM MgCl2, and 0.05% Tween-20; for K-Ras 20 mM HEPES pH 7.4, 150 mM NaCl, 10 mM MgCl2, 0.05% Tween-20 and 1 mM DTT; for TNFα 10 mM HEPES pH 7.4, 150 mM NaCl, 10 mM MgCl2, 0.05% Polysorbate-20. Triplicate data was analyzed using MO.AffinityAnalysis software (NanoTemper Technologies GmbH).

In the case of Cn1cnc(Cn2ccc3ccc(CNCc4[nH]c5ccccc5c4[C@H]4NC(=O)c5ccc(O)cc54)cc32)c1 [BI-2852, reference compound], the IC50 (cRaf/K-Ras (G12V) PPI; 1% DMSO in reaction, compounds without fluorescein, 30 nM K-Ras G12V, 10 nM GST-cRaf, 30 min pre-incubation, read-out: K-Ras G12V Compound IC50) is reported as 1600 nM, the IC50 (cRaf/K-Ras (G12V) PPI; 10-concentration IC50 mode, 3-fold serial dilution, K-Ras G12V 30 nM, GST-cRaf 10 nM, read-out: IC50) is reported as 1600 nM and the HillSlope (cRaf/K-Ras (G12V) PPI; curve fit of % binding, K-Ras G12V 30 nM, GST-cRaf 10 nM) is reported as −0.5508. For the same compound, the “blank corrected HTRF” value (cRaf/K-Ras (G12V) PPI; conc. 1.67E−05) was 2409, the “blank corrected HTRF” value (cRaf/K-Ras (G12V) PPI; conc. 1.85E−06) was 6562 and the “blank corrected HTRF” value (cRaf/K-Ras (G12V) PPI; conc. 2.06E−07) was 10050. The “blank corrected HTRF” value (cRaf/K-Ras (G12V) PPI; conc. 2.29E−08) was 12784, the “blank corrected HTRF” value (cRaf/K-Ras (G12V) PPI; conc. 2.54E−09) was 13013 and the “blank corrected HTRF” value (cRaf/K-Ras (G12V) PPI; conc. 5.00E−05) was 2344. The “blank corrected HTRF” value (cRaf/K-Ras (G12V) PPI; conc. 5.56E−06) was 4849, the “blank corrected HTRF” value (cRaf/K-Ras (G12V) PPI; conc. 6.17E−07) was 8628 and the “blank corrected HTRF” value (cRaf/K-Ras (G12V) PPI; conc. 6.86E−08) was 11886. For the same compound, the “blank corrected HTRF” value (cRaf/K-Ras (G12V) PPI; conc. 7.62E−09) was 13422, the “% Binding” value (cRaf/K-Ras (G12V) PPI; conc. 1.67E−05) was 17.36% and the “% Binding” value (cRaf/K-Ras (G12V) PPI; conc. 1.85E−06) was 47.29%. The “% Binding” value (cRaf/K-Ras (G12V) PPI; conc. 2.06E−07) was 72.42%, the “% Binding” value (cRaf/K-Ras (G12V) PPI; conc. 2.29E−08) was 92.13% and the “% Binding” value (cRaf/K-Ras (G12V) PPI; conc. 2.54E−09) was 93.78%. For the same compound, the “% Binding” value (cRaf/K-Ras (G12V) PPI; conc. 5.00E−05) was 16.9%, the “% Binding” value (cRaf/K-Ras (G12V) PPI; conc. 5.56E−06) was 34.94% and the “% Binding” value (cRaf/K-Ras (G12V) PPI; conc. 6.17E−07) was 62.18%. For the same compound, the “% Binding” value (cRaf/K-Ras (G12V) PPI; conc. 6.86E−08) was 85.66% and the “% Binding” value (cRaf/K-Ras (G12V) PPI; conc. 7.62E−09) was 96.73%.
With CC(C)[C@H](NC(=O)[C@@H](Cc1ccc(O)cc1)NC(=O)[C@@H](Cc1c[nH]cn1)NC(=O)[C@H]1CCCN1C(=O)[C@@H](Cc1c[nH]c2ccccc12)NC(=O)c1ccc2c(c1)C(=O)OC21c2ccc(O)cc2Oc2cc(O)ccc21)C(=O)NCc1ccc(CC(=O)NCC(=O)N[C@@H](C(=O)N2CCC[C@@H]2C(=O)N[C@H](CCCNC(=N)N)C(=O)N[C@@H](C)C(=O)NCc2ccc(CC(=O)N3CCC[C@@H]3C(=O)N[C@H](CO)C(=O)N[C@H](CCC(=O)O)C(=O)N[C@H](CCCNC(=N)N)C(=O)NCC(=O)NCc3ccc(CC(=O)N4CCC[C@@H]4C(=O)N[C@H](CCCCN)C(=O)N[C@H](Cc4ccc(O)cc4)C(=O)N[C@H](CCCNC(=N)N)C(=O)N[C@@H](Cc4ccccc4)C(=O)NCc4ccc(CC(=O)N5CCC[C@@H]5C(=O)NCC(=O)N[C@H](CCCNC(=N)N)C(=O)N[C@H](Cc5c[nH]c6ccccc56)C(=O)NCC(=O)NCc5ccc(CC(=O)N[C@H](Cc6ccc(O)cc6)C(=O)N6CCC[C@@H]6C(=O)N[C@H](CCCNC(=N)N)C(=O)N[C@H](CCC(=O)O)C(=O)NCC(=O)NCc6ccc(CC(N)=O)cc6)cc5)cc4)cc3)cc2)C(C)C)cc1 [KRAS-1-2] (5FAM-[dW][dP][dH][dY]V[X1]G[dV][dP][dR]A[X1][dP][dS][dE][dR]G[X1][dP][dK][dY][dR]F[X1][dP]G[dR][dW]G[X1][dY][dP][dR][dE]G-{NHCH2C6H4(4-CH2CONH2)}) the Kd (K-Ras) was 49 nM.
Work on CC(C)C[C@@H](NC(=O)c1ccc2c(c1)C(=O)OC21c2ccc(O)cc2Oc2cc(O)ccc21)C(=O)N1CCC[C@@H]1C(=O)N[C@H](CCC(=O)O)C(=O)N[C@H](CO)C(=O)N[C@@H](Cc1ccccc1)C(=O)NCc1ccc(CC(=O)NCC(=O)N[C@@H](C(=O)N2CCC[C@@H]2C(=O)N[C@H](CCCNC(=N)N)C(=O)N[C@@H](C)C(=O)NCc2ccc(CC(=O)N3CCC[C@@H]3C(=O)N[C@H](CO)C(=O)N[C@H](CCC(=O)O)C(=O)N[C@H](CCCNC(=N)N)C(=O)NCC(=O)NCc3ccc(CC(=O)N4CCC[C@@H]4C(=O)N[C@H](CCCCN)C(=O)N[C@H](Cc4ccc(O)cc4)C(=O)N[C@H](CCCNC(=N)N)C(=O)N[C@@H](Cc4ccccc4)C(=O)NCc4ccc(CC(=O)N[C@H](CCCNC(=N)N)C(=O)N[C@H](Cc5ccc(O)cc5)C(=O)N[C@@H](C(=O)N[C@H](CCC(=O)O)C(=O)N[C@@H](C)C(=O)NCc5ccc(CC(=O)NCC(=O)N[C@H](Cc6c[nH]c7ccccc67)C(=O)N[C@H](Cc6c[nH]cn6)C(=O)N[C@H](CCCNC(=N)N)C(=O)N[C@@H](C)C(=O)NCc6ccc(CC(N)=O)cc6)cc5)[C@H](C)O)cc4)cc3)cc2)C(C)C)cc1 [KRAS-1-3] (5FAM-[dL][dP][dE][dS]F[X1]G[dV][dP][dR]A[X1][dP][dS][dE][dR]G[X1][dP][dK][dY][dR]F[X1][dR][dY][dT][dE]A[X1]G[dW][dH][dR]A-{NHCH2C6H4(4-CH2CONH2)}) yielded a Kd (K-Ras) of 18 nM.
CC(C)[C@H](NC(=O)[C@@H](Cc1ccc(O)cc1)NC(=O)[C@@H](Cc1c[nH]cn1)NC(=O)[C@H]1CCCN1C(=O)[C@@H](Cc1c[nH]c2ccccc12)NC(=O)c1ccc2c(c1)C(=O)OC21c2ccc(O)cc2Oc2cc(O)ccc21)C(=O)NCc1ccc(CC(=O)N2CCC[C@@H]2C(=O)N[C@H](CO)C(=O)NCC(=O)N[C@H](CO)C(=O)N[C@@H](C)C(=O)NCc2ccc(CC(=O)N3CCC[C@@H]3C(=O)N[C@H](CO)C(=O)N[C@H](CCC(=O)O)C(=O)N[C@H](CCCNC(=N)N)C(=O)NCC(=O)NCc3ccc(CC(=O)N4CCC[C@@H]4C(=O)N[C@H](CCCCN)C(=O)N[C@H](Cc4ccc(O)cc4)C(=O)N[C@H](CCCNC(=N)N)C(=O)N[C@@H](Cc4ccccc4)C(=O)NCc4ccc(CC(=O)N5CCC[C@@H]5C(=O)NCC(=O)N[C@H](CCCNC(=N)N)C(=O)N[C@H](Cc5c[nH]c6ccccc56)C(=O)NCC(=O)NCc5ccc(CC(=O)N[C@H](Cc6ccc(O)cc6)C(=O)N6CCC[C@@H]6C(=O)N[C@H](CCCNC(=N)N)C(=O)N[C@H](CCC(=O)O)C(=O)NCC(=O)NCc6ccc(CC(N)=O)cc6)cc5)cc4)cc3)cc2)cc1 [KRAS-1-5] (5FAM-[dW][dP][dH][dY]V[X1][dP][dS]G[dS]A[X1][dP][dS][dE][dR]G[X1][dP][dK][dY][dR]F[X1][dP]G[dR][dW]G[X1][dY][dP][dR][dE]G-{NHCH2C6H4(4-CH2CONH2)}) gave a Kd (K-Ras) of 75 nM.
CC(C)C[C@H](NC(=O)[C@@H](CCC(=O)O)NC(=O)[C@H](NC(=O)[C@H]1CCCN1C(=O)[C@@H](CCC(=O)O)NC(=O)c1ccc2c(c1)C(=O)OC21c2ccc(O)cc2Oc2cc(O)ccc21)[C@H](C)O)C(=O)NCc1ccc(CC(=O)NCC(=O)N[C@@H](C(=O)N2CCC[C@@H]2C(=O)N[C@H](CCCNC(=N)N)C(=O)N[C@@H](C)C(=O)NCc2ccc(CC(=O)N3CCC[C@@H]3C(=O)N[C@H](CO)C(=O)N[C@H](CCC(=O)O)C(=O)N[C@H](CCCNC(=N)N)C(=O)NCC(=O)NCc3ccc(CC(=O)N4CCC[C@@H]4C(=O)N[C@H](CCCCN)C(=O)N[C@H](Cc4ccc(O)cc4)C(=O)N[C@H](CCCNC(=N)N)C(=O)N[C@@H](Cc4ccccc4)C(=O)NCc4ccc(CC(=O)N[C@H](CCCNC(=N)N)C(=O)N[C@H](Cc5ccc(O)cc5)C(=O)N[C@@H](C(=O)N[C@H](CCC(=O)O)C(=O)N[C@@H](C)C(=O)NCc5ccc(CC(=O)NCC(=O)N[C@H](Cc6c[nH]c7ccccc67)C(=O)N[C@H](Cc6c[nH]cn6)C(=O)N[C@H](CCCNC(=N)N)C(=O)N[C@@H](C)C(=O)NCc6ccc(CC(N)=O)cc6)cc5)[C@H](C)O)cc4)cc3)cc2)C(C)C)cc1 [KRAS-1-10] (5FAM-[dE][dP][dT][dE]L[X1]G[dV][dP][dR]A[X1][dP][dS][dE][dR]G[X1][dP][dK][dY][dR]F[X1][dR][dY][dT][dE]A[X1]G[dW][dH][dR]A-{NHCH2C6H4(4-CH2CONH2)}) gave a Kd (K-Ras) of 60 nM.
